From the supplement of paper PMC10307832

How the values were obtained:
Test in all cases: relative viability (nuclei count vs DMSO), 5 days (fraction); higher = more cells survive
Ibrutinib + Palbociclib = compound: C=CC(=O)N1CCC[C@@H](n2nc(-c3ccc(Oc4ccccc4)cc3)c3c(N)ncnc32)C1 [Ibrutinib] + CC(=O)c1c(C)c2cnc(Nc3ccc(N4CCNCC4)cn3)nc2n(C2CCCC2)c1=O [Palbociclib] (partner 0.5 µM)
Procedure, shortened: (§1)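 Lung cancer cell lines were pin-tool dosed in 1536-well plates on the day after seeding, with either a lone drug or a fixed anchor-drug dose plus five library-drug doses (not always all listed) in √10 steps. Nuclei were counted on 4× images after 5 days. Relative viability is the ratio of treated-well to vehicle-well nuclei counts, with each value a median of duplicate plates.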

Ibrutinib + Dasatinib = compound: C=CC(=O)N1CCC[C@@H](n2nc(-c3ccc(Oc4ccccc4)cc3)c3c(N)ncnc32)C1 [Ibrutinib] + Cc1nc(Nc2ncc(C(=O)Nc3c(C)cccc3Cl)s2)cc(N2CCN(CCO)CC2)n1 [Dasatinib] (partner 0.075 µM)
Procedure, shortened: as §1

BMX-IN-1 + OSI-027 = compound: C=CC(=O)Nc1cc(-n2c(=O)ccc3cnc4ccc(-c5ccc(NS(C)(=O)=O)cc5)cc4c32)ccc1C [BMX-IN-1] + COc1cccc2cc(-c3nc([C@H]4CC[C@H](C(=O)O)CC4)n4ncnc(N)c34)[nH]c12 [OSI-027] (partner 0.5 µM)
Procedure, shortened: as §1

PAC-1 + Olaparib = compound: C=CCc1cccc(/C=N/NC(=O)CN2CCN(Cc3ccccc3)CC2)c1O [PAC-1] + O=C(c1cc(Cc2n[nH]c(=O)c3ccccc23)ccc1F)N1CCN(C(=O)C2CC2)CC1 [Olaparib] (partner 8 µM)
Procedure, shortened: as §1

| Cell Line | relative viability (Ibrutinib + Palbociclib; first compound 0.005 µM) | relative viability (Ibrutinib + Palbociclib; first compound 0.01581 µM) | relative viability (Ibrutinib + Palbociclib; first compound 0.05 µM) | relative viability (Ibrutinib + Palbociclib; first compound 0.1581 µM) | relative viability (Ibrutinib + Palbociclib; first compound 0.5 µM) | relative viability (Ibrutinib + Dasatinib; first compound 0.005 µM) | relative viability (Ibrutinib + Dasatinib; first compound 0.01581 µM) | relative viability (Ibrutinib + Dasatinib; first compound 0.05 µM) | relative viability (Ibrutinib + Dasatinib; first compound 0.1581 µM) | relative viability (Ibrutinib + Dasatinib; first compound 0.5 µM) | relative viability (BMX-IN-1 + OSI-027; first compound 0.02 µM) | relative viability (BMX-IN-1 + OSI-027; first compound 0.2 µM) | relative viability (BMX-IN-1 + OSI-027; first compound 0.6325 µM) | relative viability (BMX-IN-1 + OSI-027; first compound 2 µM) | relative viability (PAC-1 + Olaparib; first compound 0.02 µM) | relative viability (PAC-1 + Olaparib; first compound 0.06325 µM) | relative viability (PAC-1 + Olaparib; first compound 0.2 µM) | relative viability (PAC-1 + Olaparib; first compound 2 µM) |
| --- | --- | --- | --- | --- | --- | --- | --- | --- | --- | --- | --- | --- | --- | --- | --- | --- | --- | --- |
| NCI-H522 | 0.865 | 1.05 | 0.861 | 1.01 | 0.664 | 0.744 | 0.584 | 0.731 | 0.773 | 0.723 | 0.673 | 0.74 | 0.696 | 0.732 | 0.591 | 0.643 | 0.619 | 0.626 |
| NCI-H647 | 0.334 | 0.385 | 0.305 | 0.374 | 0.538 |  | 0.164 | 0.167 | 0.206 | 0.174 | 0.722 | 0.642 | 0.736 | 0.571 | 0.616 | 0.492 | 0.544 | 0.236 |
| NCI-H650 | 0.399 | 0.303 | 0.415 | 0.414 | 0.358 | 0.408 | 0.484 | 0.378 | 0.491 | 0.465 | 0.511 | 0.508 | 0.594 | 0.531 | 0.328 | 0.41 | 0.387 | 0.381 |
| NCI-H661 | 0.365 | 0.337 | 0.332 | 0.366 | 0.304 | 0.626 | 0.581 | 0.417 | 0.842 | 0.425 | 0.638 | 0.798 | 0.772 | 0.761 | 0.664 | 0.721 | 0.684 | 0.505 |
| NCI-H727 | 0.593 | 0.593 | 0.644 | 0.644 | 0.505 |  | 0.393 | 0.424 |  | 0.298 | 0.846 | 0.597 | 0.648 | 0.612 | 0.753 | 0.715 | 0.568 | 0.68 |
| NCI-H838 | 0.178 | 0.209 | 0.202 | 0.202 | 0.234 | 0.327 | 0.286 | 0.297 | 0.251 | 0.289 | 0.424 | 0.389 | 0.438 | 0.389 | 0.715 | 0.735 | 0.727 | 0.656 |
| NCI-H1355 |  | 0.362 | 0.359 | 0.422 | 0.295 | 0.527 | 0.647 | 0.718 | 0.623 | 0.677 | 0.386 | 0.393 | 0.482 | 0.424 | 0.78 | 0.693 | 0.724 | 0.74 |
| NCI-H1395 | 0.55 | 0.672 | 0.648 | 0.623 | 0.612 | 0.419 | 0.401 | 0.383 | 0.392 | 0.417 | 0.645 | 0.64 | 0.647 | 0.637 | 0.493 | 0.44 | 0.485 | 0.46 |
| NCI-H1437 | 0.336 | 0.307 | 0.307 | 0.235 | 0.374 | 0.313 | 0.39 | 0.375 | 0.217 | 0.362 | 1.05 | 0.912 | 0.916 | 0.845 | 0.606 | 0.632 | 0.555 | 0.471 |
| NCI-H1650 | 0.382 | 0.305 | 0.314 | 0.436 | 0.243 | 0.304 | 0.281 | 0.321 | 0.369 | 0.346 | 0.69 | 0.544 | 0.84 | 0.606 | 0.709 | 0.751 | 0.726 | 0.674 |
| NCI-H1651 | 0.529 | 0.5 | 0.533 | 0.489 | 0.51 | 0.446 | 0.386 | 0.368 | 0.352 | 0.428 | 0.9 | 0.426 | 0.782 | 0.582 | 0.149 | 0.2 | 0.181 | 0.193 |
| NCI-H1666 | 0.647 | 0.692 | 0.639 | 0.631 | 0.659 | 0.841 | 0.807 | 0.803 | 0.896 | 0.706 | 0.948 | 1.01 | 0.843 | 0.951 | 0.688 | 0.745 | 0.75 | 0.729 |
| NCI-H1734 | 0.374 | 0.332 | 0.384 | 0.346 | 0.357 | 0.36 | 0.473 | 0.506 | 0.521 | 0.454 | 0.709 | 0.64 | 0.632 | 0.621 | 0.655 | 0.611 | 0.271 | 0.632 |
| NCI-H1755 | 0.473 | 0.442 | 0.467 | 0.455 | 0.495 | 0.478 | 0.365 | 0.444 | 0.484 | 0.383 | 0.685 | 0.787 | 0.765 | 0.721 | 0.879 | 0.837 | 0.849 | 0.826 |
| NCI-H1792 |  | 0.593 | 0.757 |  | 0.683 |  | 0.759 | 0.755 |  | 0.685 |  | 0.823 | 0.817 | 0.775 | 0.305 | 0.383 | 0.0039 | 0.454 |
| NCI-H1793 | 0.251 | 0.247 | 0.238 | 0.31 | 0.243 |  | 0.371 | 0.358 | 0.389 | 0.303 | 0.271 | 0.281 | 0.324 | 0.332 | 0.682 | 0.855 | 0.7 | 0.628 |
| NCI-H1915 | 0.519 | 0.517 | 0.554 | 0.506 | 0.532 | 0.287 | 0.292 | 0.288 | 0.319 | 0.369 | 0.647 | 0.714 | 0.805 | 0.619 | 0.234 | 0.262 | 0.22 | 0.274 |
| NCI-H1944 | 0.297 | 0.285 | 0.273 | 0.301 | 0.255 | 0.21 | 0.18 | 0.206 | 0.178 | 0.193 | 0.417 | 0.405 | 0.502 | 0.452 | 0.389 | 0.434 | 0.425 | 0.402 |
